One data set deals with MATE1. The experiment in a line: Expression level of MATE1 in rat liver by UHPLC-MS/MS. In kind it is in vivo. The text has this:
Male Sprague Dawley rats (230 ± 20 g, 6–8 weeks of age) were purchased from B&K Laboratory Animal, Corp. Ltd. (Shanghai, China) and fed in the Laboratory Animal Center of Shanghai University of Traditional Chinese Medicine. All rats were allowed to acclimatize for 3 days before experimentation. The rats were randomly divided into six groups (n = 5 for each group). […]
Biotransformation of xenobiotics and endogenous compounds is a crucial step in the absorption and elimination of potentially harmful substances from the human body, a process that could be affected by the levels of pharmacokinetic enzymes and transporter proteins. […] Previous methods of protein quantification are immunological, such as immunoblotting ([Zhang et al., 2016]), […] and two-dimensional electrophoresis ([Bruschi et al., 2015]). […] A milestone in quantitative protein analysis was the introduction of mass spectrometry-based analysis using shotgun proteomic assays with relative protein quantification, which has advantages in terms of absolute accuracy, stability, operability, and efficiency over traditional quantitative methods ([Wang et al., 2015]). […]

Data set [1] is described as follows: Identification of components and metabolites of YCHD in rat plasma, bile, urine and feces (UHPLC/Q-TOF-MS). In kind it is in vivo. The settings on record: rats, oral YCHD 12 g/kg, urine, feces. How it is done: After centrifuging at 4000 rpm for 10 min, supernatant plasma was harvested into heparinized tubes and then stored at -20°C for preservation. The rats in the second group (n = 6) were kept individually in metabolic cages to collect urine and feces. […] Subsequently, the rats were orally administered a single dose of YCHD (12 g/kg of body weight). […] For the third group of rats (n = 6), bile duct intubation was implemented, and blank bile samples were collected before administration. After the administration of YCHD at 12 g/kg of body weight, the drug-containing bile samples were collected.
Plasma, bile, and urine samples (200 μL each) were separately precipitated with six times of methanol–acetonitrile mixed solution (v/v, 1:1; containing 1% formic acid). After being vortex mixed for 5 min and centrifuged at 15,000 rpm for 5 min at 4°C, the supernatant was separated into another clean tube and dried under a gentle stream of nitrogen at 45°C. Subsequently, the residue was reconstituted in 100 μL of 50% methanol–water (v/v) and then vortex mixed for 10 min. After another round of centrifugation at 15,000 rpm for 5 min at 4°C, 5 μL of the supernatant was analyzed by UHPLC-MS/MS. A 0.5 g sample of naturally dried feces was supplemented with 2 mL of 80% methanol–water (v/v) and then ultrasonically extracted for 30 min at 4°C. After being centrifuged at 15,000 rpm for 10 min, the supernatant was dried under a gentle stream of nitrogen at 45°C. Finally, the residue was reconstituted in 1 mL of 50% methanol–water (v/v) and then vortex mixed for 10 min. After another round of centrifugation at 15,000 rpm for 5 min at 4°C, 5 μL of the supernatant sample was injected into the UHPLC-MS/MS system for analysis.
Separations were conducted on an Agilent SB-C18 column (2.1 mm × 50 mm, 1.8 μm) of a UHPLC/Q-TOF-MS system (Waters, Corp., Milford, MA, United States) maintained at 40°C.
A Synapt G2 quadrupole time-of-flight (Q/TOF) MS/MS system (Waters, Corp., Manchester, United Kingdom) equipped with an electrospray ionization (ESI) interface was operated in negative ionization mode and controlled by MassLynx software (Version 4.1). The optimized conditions for maximum detection of metabolites were as follows: the capillary voltage was set at 3.0 kV, extraction cone voltage was set at 10 and 15 V, source temperature was maintained at 120°C, and desolvation temperature was maintained at 450°C. […] An MS^E approach using a dynamic ramp of collision energy was also applied at two (low and high collision energies) scan functions. The following parameters were set: Function 1 (low energy)—mass scan range, 100–1000; scan time, 0.25 s; interscan delay, 0.05 s; collision energy, 4 V. Function 2 (high energy)—mass scan range, 100–1000; scan time, 0.2 s; interscan delay, 0.05 s; collision energy ramp, 10–30 V. Data were acquired using Masslynx^TM (Version 4.1. Waters, Crop., Milford, MA, United States), and Metabolynx^TM (Waters, Crop., Milford, MA, United States) was applied for post-acquisition data processing.

Take `C[C@H](CCC(=O)O)[C@H]1CC[C@H]2[C@@H]3[C@@H](O)C[C@@H]4C[C@H](O)CC[C@]4(C)[C@H]3CC[C@]12C` [UDCA, Ursodeoxycholic acid]: in the data set with MATE1 (UDCA group, ANIT-treated rats, mean ± S.D.), the “Mate1 expression level in rat liver” value was found to be 3.43±1.38 fmol/μg protein. In addition, the “MATE1 expression upregulated, fold” value with MATE1 (UDCA-treated cholestatic rats, liver, not statistically significant) was determined as 1.7 fold.
Consider `CC(=O)c1ccc(O)cc1` [4-hydroxyacetophenone, 4-Hydroxyacetophenone], for which, in data set [1], the “Source (biological samples in which the compound was identified)” value was “Plasma, bile, urine, feces”.
With `COC(=O)C1=CO[C@@H](O[C@@H]2O[C@H](CO[C@@H]3O[C@H](CO)[C@@H](O)[C@H](O)[C@H]3O)[C@@H](O)[C@H](O)[C@H]2O)[C@@H]2C(CO)=CC[C@H]12` [genipin-1-β-D-gentiobiodide, Genipin-1-β-D-gentiobiodide], the “Source (biological samples in which the compound was identified)” value in data set [1] is on record as “Bile, urine”.
The same measure, in the same setting: the same measure for `O=C(O)c1cc(O)c2c(c1)C(=O)c1cccc(O)c1C2=O` [Rhein]: “Plasma, bile, urine, feces”; for `O=C(O)C1=CO[C@@H](O[C@@H]2O[C@H](CO)[C@@H](O)[C@H](O)[C@H]2O)[C@@H]2C(CO)=CC[C@H]12` [Geniposidic acid]: “Plasma, urine, feces”.
As for `COC(=O)C1=COC(OC2OC(CO)C(O)C(O)C2O)C2C(CO)=CC(O)C12` (centres unmarked) [Scandoside methyl ester], the “Source (biological samples in which the compound was identified)” value in data set [1] is on record as “Plasma, bile, urine, feces”.
As to `COC(=O)C1=CO[C@@H](O[C@@H]2O[C@H](CO)[C@@H](O)[C@H](O)[C@H]2O)[C@@H]2C(CO)=CC[C@H]12` [Geniposide], the “Source (biological samples in which the compound was identified)” value in data set [1] is “Plasma, bile, urine, feces”.

These data come from article PMC5962729 (Frontiers in Pharmacology, 2018).
